Experimental data taken from EP4752152A1, “STEROID COMPOUND, AND PREPARATION METHOD THEREFOR AND USE THEREOF” (Cholesgen (Shanghai) Co.Ltd., priority 2023, dated 2025).

These compounds were tested on SREBP pathway (assay: SREBP luciferase reporter gene system (SRE-luciferase assay)). Conditions: Homo sapiens, Huh-7, 16 h, Huh-7/SRE-luc cells, sterol-deficient medium, 0.01-10 µM.
Type: cell-based, human
Summary of the method: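 Readout was SRE-driven luciferase normalised to GFP fluorescence in lysates of stably transfected Huh-7/SRE-luc hepatoma cells. Compounds (0.01, 0.03, 0.1, 0.3, 1.0, 3.0, 10 µM; DMSO control) were applied for 16 h in sterol-depleted medium with 2 µM lovastatin and 10 µM mevalonate; IC50 from variable-slope fit.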

Row | Compound | IC50 [µM]
1 | COc1ccccc1C(O)CCC[C@@H](C)[C@H]1CC[C@H]2C3=C(F)C[C@H]4C[C@@H](O)CC[C@]4(C)[C@H]3CC[C@]12C (stereo partly drawn) [Compound 73, (1R,3aR,5aR,7S,9aS,9bR,11aR)-4-fluoro-1-[(2R)-6-hydroxy-6-(2-methoxyphenyl)hexan-2-yl]-9a,11a-dimethyl-2,3,3a,5,5a,6,7,8,9,9a,9b,10,11,11a-tetradecahydro-1H-cyclopenta[1,2-a]phenanthren-7-ol] | 0.55
2 | C[C@H](CCC[C@H](O)c1ccc(F)nc1OCC1COC1)[C@H]1CC[C@H]2[C@H]3[C@H](CC[C@]12C)[C@@]1(C)CC[C@H](O)[C@H](O)[C@@H]1CC3(F)F [Compound 385, (1R,3aS,3bS,5aR,6R,7S,9aR,9bS,11aR)-4,4-difluoro-1-[(2R,6S)-6-{6-fluoro-2-[(oxetan-3-ylmethyl)oxy]pyridin-3-yl}-6-hydroxyhexan-2-yl]-9a,11a-dimethylhexadecahydro-1H-cyclopenta[1,2-a]phenanthrene-6,7-diol] | 0.332
3 | COc1nccnc1[C@@H](O)CCC[C@@H](C)[C@H]1CC[C@H]2[C@H]3[C@H](CC[C@]12C)[C@@]1(C)CC[C@H](O)[C@H](O)[C@@H]1CC3(F)F [Compound 155, (1R,3aS,3bS,5aR,6R,7S,9aR,9bS,11aR)-4,4-difluoro-1-[(2R,6S)-6-hydroxy-6-(3-methoxypyrazin-2-yl)hexan-2-yl]-9a,11a-dimethylhexadecahydro-1H-cyclopenta[1,2-a]phenanthrene-6,7-diol] | 0.188
4 | C[C@H](CCCC(O)c1cccc2nnn(C)c12)[C@H]1CC[C@H]2[C@H]3[C@H](CC[C@]12C)[C@@]1(C)CC[C@H](O)[C@H](O)[C@@H]1CC3(F)F (single isomer, unassigned) [Compound 277, (1R,3aS,3bS,5aR,6R,7S,9aR,9bS,11aR)-4,4-difluoro-1-[(2R,6S)-6-hydroxy-6-(3-methylbenzo[d][1,2,3]triazol-4-yl)hexan-2-yl]-9a,11a-dimethylhexadecahydro-1H-cyclopenta[1,2-a]phenanthrene-6,7-diol or (1R,3aS,3bS,5aR,6R,7S,9aR,9bS,11aR)-4,4-difluoro-1-[(2R,6R)-6-hydroxy-6-(3-methylbenzo[d][1,2,3]triazol-4-yl)hexan-2-yl]-9a,11a-dimethylhexadecahydro-1H-cyclopenta[1,2-a]phenanthrene-6,7-diol] | 0.369
5 | C[C@H](CCCC(O)c1ccc(F)nc1O)[C@H]1CC[C@H]2[C@H]3[C@H](CC[C@]12C)[C@@]1(C)CC[C@H](O)[C@H](O)[C@@H]1CC3(F)F (stereo partly drawn) [Compound 276, (1R,3aS,3bS,5aR,6R,7S,9aR,9bS,11aR)-4,4-difluoro-1-[(2R)-6-(6-fluoro-2-hydroxypyridin-3-yl)-6-hydroxyhexan-2-yl]-9a,11a-dimethylhexadecahydro-1H-cyclopenta[1,2-a]phenanthrene-6,7-diol] | 0.925
6 | C[C@H](CCN(C)C(=O)c1ccccc1F)[C@H]1CC[C@H]2[C@@H]3CC[C@@]4(C)[C@@H](O)[C@@H](O)CC[C@]4(C)[C@H]3CC[C@]12C [Compound 15A, 2-fluoro-N-[(3R)-3-[(1R,3aS,3bS,5aR,6R,7S,9aR,9bS,11aR)-6,7-dihydroxy-5a,9a,11a-trimethylhexadecahydro-1H-cyclopenta[1,2-a]phenanthren-1-yl]butyl]-N-methylbenzamide] | 0.37
7 | C[C@H](CCC[C@@H](O)c1cccc2c1cnn2C)[C@H]1CC[C@H]2C3=C(F)C[C@H]4[C@@H](O)[C@@H](O)CC[C@]4(C)[C@H]3CC[C@]12C [Compound 253, (1R,3aR,5aR,6R,7S,9aR,9bR,11aR)-4-fluoro-1-[(2R,6R)-6-hydroxy-6-(1-methylindazol-4-yl)hexan-2-yl]-9a,11a-dimethyl-2,3,3a,5,5a,6,7,8,9,9a,9b,10,11,11a-tetradecahydro-1H-cyclopenta[1,2-a]phenanthrene-6,7-diol] | 0.016
8 | COc1cc(F)c(C(O)CCCC(C)C2CCC3C4C(CCC23C)C2(C)CCC(O)C(O)C2CC4(F)F)c(F)c1 (single isomer, unassigned) [Compound 204, (1R,3aS,3bS,5aR,6R,7S,9aR,9bS,11aR)-1-[(2R,6S)-6-(2,6-difluoro-4-methoxyphenyl)-6-hydroxyhexan-2-yl]-4,4-difluoro-9a,11a-dimethylhexadecahydro-1H-cyclopenta[1,2-a]phenanthrene-6,7-diol or (1R,3aS,3bS,5aR,6R,7S,9aR,9bS,11aR)-1-[(2R,6R)-6-(2,6-difluoro-4-methoxyphenyl)-6-hydroxyhexan-2-yl]-4,4-difluoro-9a,11a-dimethylhexadecahydro-1H-cyclopenta[1,2-a]phenanthrene-6,7-diol] | 0.145
9 | C[C@H](CCCC(O)c1c(F)cccc1F)[C@H]1CC[C@H]2[C@H]3[C@H](CC[C@]12C)[C@@]1(C)CC[C@H](O)[C@H](O)[C@@H]1CC3(F)F (stereo partly drawn) [Compound 161, (1R,3aS,3bS,5aR,6R,7 S,9aR,9bS,11aR)-1-[(2R)-6-(2,6-Difluorophenyl)-6-hydroxyhexan-2-yl]-4,4-difluoro-9a,11a-dimethylhexadecahyd ro-1H-cyclopenta[1,2-a]phenanthrene-6,7-diol] | 0.1
10 | COc1ccnc(F)c1C(O)CCC[C@@H](C)[C@H]1CC[C@H]2[C@H]3[C@H](CC[C@]12C)[C@@]1(C)CC[C@H](O)[C@H](O)[C@@H]1CC3(F)F (stereo partly drawn) [Compound 149, (1R,3aS,3bS,5aR,6R,7S,9aR,9bS,11aR)-4,4-difluoro-1-[(2R)-6-(2-fluoro-4-methoxypyridin-3-yl)-6-hydroxyhexan-2-yl]-9a,11a-dimethylhexadecahydro-1H-cyclopenta[1,2-a]phenanthrene-6,7-diol] | 0.14
11 | C[C@H](CCCC(O)c1cccc(F)c1)[C@H]1CC[C@H]2C3=C(F)C[C@H]4[C@@H](O)[C@@H](O)CC[C@]4(C)[C@H]3CC[C@]12C (stereo partly drawn) [Compound 45, (1R,3aR,5aR,6R,7S,9aR,9bR,11aR)-4-fluoro-1-[(2R)-6-(3-fluorophenyl)-6-hydroxyhexan-2-yl]-9a,11a-dimethyl-2,3,3a,5,5a,6,7,8,9,9a,9b,10,11,11a-tetradecahydro-1H-cyclopenta[1,2-a]phenanthrene-6,7-diol] | 0.198
12 | COc1nc(F)ccc1C(O)CC[C@@H](C)[C@H]1CC[C@H]2[C@H]3[C@H](CC[C@]12C)[C@@]1(C)CC[C@H](O)[C@H](O)[C@@H]1CC3(F)F (stereo partly drawn) [Compound 341, (1R,3aS,3bS,5aR,6R,7S,9aR,9bS,11aR)-4,4-difluoro-1-[(2R)-5-(6-fluoro-2-methoxypyridin-3-yl)-5-hydroxypentan-2-yl]-9a,11a-dimethylhexadecahydro-1H-cyclopenta[1,2-a]phenanthrene-6,7-diol] | 0.206
13 | COc1cc(F)nc(OC)c1[C@H](O)CCC[C@@H](C)[C@H]1CC[C@H]2[C@H]3[C@H](CC[C@]12C)[C@@]1(C)CC[C@H](O)[C@H](O)[C@@H]1CC3(F)F (single isomer, unassigned) [Compound 264] | 0.189
14 | COc1cccc(F)c1[C@H](F)CCC[C@@H](C)[C@H]1CC[C@H]2[C@H]3[C@H](CC[C@]12C)[C@@]1(C)CC[C@H](O)[C@H](O)[C@@H]1CC3(F)F (single isomer, unassigned) [Compound 216] | 2.65

Same assay, conditions: Huh-7/SRE-luc cells, sterol-deficient medium, 16 hours, 0.01-10 µM

Row | Compound | IC50 [µM]
15 | COc1cc(F)cc(OC)c1C(O)CCC[C@@H](C)[C@H]1CC[C@H]2[C@H]3[C@H](CC[C@]12C)[C@@]1(C)CC[C@H](O)[C@H](O)[C@@H]1CC3(F)F (single isomer, unassigned) [Compound 225, (1R,3aS,3bS,5aR,6R,7S,9aR,9bS,11aR)-4,4-difluoro-1-[(2R,6R)-6-(4-fluoro-2,6-dimethoxyphenyl)-6-hydroxyhexan-2-yl]-9a,11a-dimethylhexadecahydro-1H-cyclopenta[1,2-a]phenanthrene-6,7-diol or (1R,3aS,3bS,5aR,6R,7S,9aR,9bS,11aR)-4,4-difluoro-1-[(2R,6S)-6-(4-fluoro-2,6-dimethoxyphenyl)-6-hydroxyhexan-2-yl]-9a,11a-dimethylhexadecahydro-1H-cyclopenta[1,2-a]phenanthrene-6,7-diol] | 0.175
16 | C[C@H](CCC[C@H](O)c1cc2ccccc2o1)[C@H]1CC[C@H]2[C@H]3[C@H](CC[C@]12C)[C@@]1(C)CC[C@H](O)[C@H](O)[C@@H]1CC3(F)F [Compound 321, (1R,3aS,3bS,5aR,6R,7S,9aR,9bS,11aR)-1-[(2R,6S)-6-(1-benzofuran-2-yl)-6-hydroxyhexan-2-yl]-4,4-difluoro-9a,11a-dimethylhexadecahydro-1H-cyclopenta[1,2-a]phenanthrene-6,7-diol] | 0.114
17 | C[C@H](CCCC(O)c1cncc2c1cnn2C)[C@H]1CC[C@H]2[C@H]3[C@H](CC[C@]12C)[C@@]1(C)CC[C@H](O)[C@H](O)[C@@H]1CC3(F)F (single isomer, unassigned) [Compound 287, (1R,3aS,3bS,5aR,6R,7S,9aR,9bS,11aR)-4,4-difluoro-1-[(2R,6S)-6-hydroxy-6-(1-methylpyrazolo[3,4-c]pyridin-4-yl)hexan-2-yl]-9a,11a-dimethylhexadecahydro-1H-cyclopenta[1,2-a]phenanthrene-6,7-diol or (1R,3aS,3bS,5aR,6R,7S,9aR,9bS,11aR)-4,4-difluoro-1-[(2R,6R)-6-hydroxy-6-(1-methylpyrazolo[3,4-c]pyridin-4-yl)hexan-2-yl]-9a,11a-dimethylhexadecahydro-1H-cyclopenta[1,2-a]phenanthrene-6,7-diol] | 0.131
18 | COc1ccc(F)c(C(O)CCC[C@@H](C)[C@H]2CC[C@H]3[C@H]4[C@H](CC[C@]23C)[C@@]2(C)CC[C@H](O)[C@H](O)[C@@H]2CC4(F)F)c1 (single isomer, unassigned) [Compound 166, (1R,3aS,3bS,5aR,5aR,6R,7S,9aR,9bS,11aR) -4,4-difluoro-1-[(2R,6S)-6-(2-fluoro-5-methoxyphenyl)-6-hydroxyhexan-2-yl]-9a,11a-dimethylhexadecahydro-1H-cyclopenta[1,2-a]phenanthrene-6,7-diol or (1R,3aS,3bS,5aR,6R,7S,9aR,9bS,11aR)-4,4-difluoro-1-[(2R,6R)-6-(2-fluoro-5-methoxyphenyl)-6-hydroxyhexan-2-yl]-9a,11a-dimethylhexadecahydro-1H-cyclopenta[1,2-a]phenanthrene-6,7-diol] | 0.138
